Legend:
hHDAC = experiment: Inhibition studies hHDAC; type: biochemical, human; on Inhibition verdict: key: N.I.—not inhibited
Description: (§1) To investigate the selectivity of ML302/ML302F for bacterial MBLs, activity was tested against TEM-1 (a Class A SBL), PBP-5 (penicillin-binding protein 5 or dacA) and PBP-6 (penicillin-binding protein 6, or dacC) from E. coli, hHAT (human histone acetyltransferase) and hHDAC (human histone deacetylase). TEM-1, PBP-5 and -6 and hHAT are known to be inhibited by rhodanines. Selectively against hACE-2 (Angiotensin converting enzyme 2) and hHAGH (Hydroxyacylglutathione hydrolase, human Glyoxylase II) was also tested.
(§2) The inhibition analyses for human histone acetyltransferases (HAT), HDAC hHDAC (human histone deacetylase), hACE-2 (Angiotensin converting enzyme 2) and hHAGH (Hydroxyacylglutathione hydrolase, human Glyoxylase II) were performed using the commercially available HAT Assay Kit (Active Motif, catalogue No. 56100 (2009)), hHDAC (Active Motif, catalogue No. 56200 (2013)), hACE-2 (ACE-2 (R&D Systems) and hHAGH ((R&D Systems).

hGlyoxylase II = biological target: T1, hGlyoxylase II (Homo sapiens, UniProt Q16775); experiment: hHAGH (human Glyoxylase II) assay; type: biochemical; on Inhibition verdict: key: N.I.—not inhibited
T1 construct: purchased R&D Systems 5944-GO
Description: as §1, §2
• Assay Buffer: 50 mM Tris, 250 mM NaCl, pH 7.5 • Recombinant Human Glyoxalase II (rhGlyoxalase II) (Catalog #5944-GO) • Substrate: S-Lactoylglutathione (Sigma, Catalog # L7140), 100 mM stock in deionized water • 5, 5′-dithiobis(2-nitrobenzoic acid) (DTNB) (Sigma, Catalog # D8130), 10 mM stock in DMSO • 96-well Clear Plate (Costar, Catalog #92592) • Plate Reader (Model: SpectraMax Plus by Molecular Devices) or equivalent Assay: 1. Dilute rhGlyoxalase II to 0.4 ng/μL in Assay Buffer. 2. Dilute Substrate to 2 mM in Assay Buffer with 400 IJM DTNB to form Substrate Mixture. 3. Load 50 μL of 0.4 ng/μL rhGlyoxalase II into a plate and start the reaction by loading 50 μL of Substrate Mixture. Include a Substrate Blank containing 50 μL of Assay Buffer and 50 μL of Substrate Mixture. 4. Read at 405 nm (absorbance) in kinetic mode for 5 minutes. 5. Calculate specific activity:
[formula] [formula] [formula] [formula] Note: the output of many spectrophotometers is in mOD. Final Assay Conditions Per Well: rhGlyoxalase II: […] S-Lactoylglutathione: 1 mM DTNB: 200 μM

E. coli MG1655 (IMP-1) = experiment: Meropenem MIC with and without inhibitor; type: cell-based, Escherichia coli; details: for Meropenem MIC in the presence of inhibitor: E. coli MG1655 (IMP-1)
Description: (§3) Further studies were carried out to determine if ML302F/ML302 potentiates β-lactam antibiotic activity in clinically derived strains containing IMP-1, IMP-4, VIM-4 or NDM-1, which are the most commonly observed MBLs in clinical isolates. All strains producing MBLs were confirmed as resistant to meropenem at the Clinical and Laboratory Standards Institute (U.S.A.) defined breakpoint of 8 μg/mL for Enterobacteriace (see Table 2 below). The minimum inhibitory concentration (MIC) of meropenem against wildtype and MBL producing Escherichia coli and Klebsiella pneumoniae strains was determined with and without increasing concentrations of ML302 or ML302F. Clinical and Laboratory Standards Institute. 2012. Methods for dilution antimicrobial susceptibility tests for bacteria that grow aerobically; 9th ed. Approved standard M07-A9. CLSI, Wayne, Pa.; and Clinical and Laboratory Standards Institute. 2012. Performance standards for antimicrobial susceptibility testing; 22nd informational supplement M100-S22. CLSI, Wayne, Pa.

E. coli IR60 (NDM-1) = experiment: Meropenem MIC with and without inhibitor; type: cell-based, Escherichia coli
Description: as §3

[1] = tested on: K. pneumoniae NCTC 5055 (IMP-1); experiment: Meropenem MIC with and without inhibitor; type: cell-based, Klebsiella pneumoniae; details: for Meropenem MIC in the presence of inhibitor: K. pneumoniae NCTC 5055 (IMP-1)
Description: as §3

[2] = tested on: K. pneumoniae A34 (VIM-4); experiment: Meropenem MIC with and without inhibitor; type: cell-based, Klebsiella pneumoniae
Description: as §3

[3] = tested on: K. pneumoniae B19 (IMP-4); experiment: Meropenem MIC with and without inhibitor; type: cell-based, Klebsiella pneumoniae
Description: as §3

PBP5 (dacA) from E. coli = PBP5 (dacA) from E. coli (Escherichia coli, UniProt P0AEB2); experiment: Inhibition studies for penicillin binding proteins, PBP5; type: biochemical; details: for remaining activity at 100 µM: read-out: RA (residual activity); on Inhibition verdict: key: N.I.—not inhibited
Chain of PBP5 (dacA) from E. coli (P0AEB2 30-403): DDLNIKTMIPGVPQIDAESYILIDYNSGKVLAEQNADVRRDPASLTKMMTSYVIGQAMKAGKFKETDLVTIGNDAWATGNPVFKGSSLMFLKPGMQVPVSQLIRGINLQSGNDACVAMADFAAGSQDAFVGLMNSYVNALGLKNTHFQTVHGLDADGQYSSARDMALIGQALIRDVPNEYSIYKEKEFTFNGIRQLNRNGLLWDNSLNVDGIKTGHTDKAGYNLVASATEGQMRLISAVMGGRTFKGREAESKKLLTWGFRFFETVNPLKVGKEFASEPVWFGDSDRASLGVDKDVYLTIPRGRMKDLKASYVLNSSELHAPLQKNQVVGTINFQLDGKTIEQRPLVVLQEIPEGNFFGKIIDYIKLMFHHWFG
Description: as §1
(§4) The inhibition analyses were performed using the method previously described for PBP-3 (van Berkel, S. S. et al. Binding of (5 S)-penicilloic acid to penicillin binding protein 3.ACS Chem. Biol. 8, 2112-2116 (2013)). In brief: ML302 and ML302F were initially screened at a single concentration (100 μM) in duplicate. Inhibition of the PBP acylation rate by the chromogenic β-lactam Nitrocefin was determined by pre-incubation of the appropriate amount of enzyme (dacA 2 μM and dacC 6.8 μM, respectively) and inhibitor in the assay buffer (50 mM HEPES-NaOH buffer (pH 7.2) supplemented with 200 mM NaCl and 0.01% Triton 100) for 10 min. at r.t. prior to the initiation of the assay by the addition of nitrocefin (100 μM final concentration). The hydrolysis of Nitrocefin was monitored by following the variation in absorbance at 492 nm using 96 well flat bottom plates (UV-STAR Microplate (655801) or Greiner Bio-One). The experiments were performed using a PHERAstar FS—BMG Labtech microplate reader (using path length correction) at r.t. (24-25° C.). All enzymes and inhibitors were prepared in the assay buffer.

PBP6 (dacC) from E. coli = PBP6 (dacC) from E. coli (Escherichia coli, UniProt P08506); experiment: Inhibition studies for penicillin binding proteins, PBP6; type: biochemical; details: for Inhibition verdict: 100 μM; for remaining activity at 100 µM: read-out: RA (residual activity); on Inhibition verdict: key: N.I.—not inhibited
Chain of PBP6 (dacC) from E. coli (P08506 28-400): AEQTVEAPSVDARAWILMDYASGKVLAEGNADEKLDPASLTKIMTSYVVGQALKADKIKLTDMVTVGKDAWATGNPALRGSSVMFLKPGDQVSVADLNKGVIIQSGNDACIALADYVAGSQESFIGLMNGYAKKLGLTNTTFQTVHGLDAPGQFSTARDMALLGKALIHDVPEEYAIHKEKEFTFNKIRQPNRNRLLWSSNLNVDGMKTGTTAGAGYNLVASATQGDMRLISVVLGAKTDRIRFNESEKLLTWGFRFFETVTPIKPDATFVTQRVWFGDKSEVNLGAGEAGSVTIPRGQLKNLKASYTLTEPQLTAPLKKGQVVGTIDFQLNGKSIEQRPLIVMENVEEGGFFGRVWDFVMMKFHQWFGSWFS
Description: as §1, §4

[4] = Klebsiella pneumoniae, read-out: Meropenem MIC in the absence of inhibitor

Row | SMILES | Inhibition verdict (hHDAC) | RA (residual activity) (hHDAC) [%] | Inhibition verdict (hGlyoxylase II) | RA (residual activity) (hGlyoxylase II) [%] | Meropenem MIC in the presence of inhibitor (E. coli MG1655 (IMP-1); inhibitor 10 mg/L) [mg/L] | Meropenem MIC in the presence of inhibitor (E. coli MG1655 (IMP-1); inhibitor 25 mg/L) [mg/L] | Meropenem MIC in the presence of inhibitor (E. coli MG1655 (IMP-1); inhibitor 50 mg/L) [mg/L] | Meropenem MIC in the presence of inhibitor (E. coli MG1655 (IMP-1); inhibitor 100 mg/L) [mg/L] | Meropenem MIC in the presence of inhibitor (E. coli IR60 (NDM-1); inhibitor 10 mg/L) [mg/L] | Meropenem MIC in the presence of inhibitor (E. coli IR60 (NDM-1); inhibitor 25 mg/L) [mg/L] | Meropenem MIC in the presence of inhibitor (E. coli IR60 (NDM-1); inhibitor 50 mg/L) [mg/L] | Meropenem MIC in the presence of inhibitor (E. coli IR60 (NDM-1); inhibitor 100 mg/L) [mg/L] | Meropenem MIC in the presence of inhibitor ([1]; inhibitor 10 mg/L) [mg/L] | Meropenem MIC in the presence of inhibitor ([1]; inhibitor 25 mg/L) [mg/L] | Meropenem MIC in the presence of inhibitor ([1]; inhibitor 50 mg/L) [mg/L] | Meropenem MIC in the presence of inhibitor ([2]; inhibitor 10 mg/L) [mg/L] | Meropenem MIC in the presence of inhibitor ([2]; inhibitor 25 mg/L) [mg/L] | Meropenem MIC in the presence of inhibitor ([2]; inhibitor 50 mg/L) [mg/L] | Meropenem MIC in the presence of inhibitor ([2]; inhibitor 100 mg/L) [mg/L] | Meropenem MIC in the presence of inhibitor ([3]; inhibitor 10 mg/L) [mg/L] | other results
1 | O=C(O)C(S)=Cc1c(Cl)ccc(Cl)c1Cl (racemic) [ML302F, 2-Mercapto-3-(2,3,6-trichlorophenyl)acrylic acid] | N.I. | 116 ± 7 | N.I. | 95 ± 6 | 4 | 4 | 2 | 0.5 | 16 | 16 | 8 | 8 | 4 | 0.5 | 0.5 | 64 | 32 | 32 | 16 | 2 | Meropenem MIC in the presence of inhibitor ([3]; inhibitor 25 mg/L): 1 mg/L; Meropenem MIC in the presence of inhibitor ([3]; inhibitor 50 mg/L): 0.5 mg/L; Inhibition verdict (PBP5 (dacA) from E. coli; 100 μM): N.I.; remaining activity at 100 µM (PBP5 (dacA) from E. coli): 99.2 ± 6.4%; Inhibition verdict (PBP6 (dacC) from E. coli): N.I.; remaining activity at 100 µM (PBP6 (dacC) from E. coli): 114%
2 | C[C@@H](O)[C@H]1C(=O)N2C(C(=O)O)=C(S[C@@H]3CN[C@H](C(=O)N(C)C)C3)[C@H](C)[C@H]12 [Meropenem, meropenem] |  |  |  |  |  |  |  |  |  |  |  |  |  |  |  |  |  |  |  |  | MIC (E. coli MG1655 (IMP-1); Escherichia coli, MG1655, read-out: Meropenem MIC in the absence of inhibitor): 32 µg/mL; MIC (E. coli IR60 (NDM-1); Escherichia coli, read-out: Meropenem MIC in the absence of inhibitor): 16 µg/mL; MIC ([1]; Klebsiella pneumoniae, NCTC5055, read-out: Meropenem MIC in the absence of inhibitor): 32 µg/mL; MIC [2, 4]: 128 µg/mL; MIC [3, 4]: 16 µg/mL
3 | CN1CCN(NC(=O)CN2C(=O)C(=Cc3c(Cl)ccc(Cl)c3Cl)SC2=S)CC1 (mixture of isomers) [ML302, N-(4-Methylpiperazin-1-yl)-2-(4-oxo-2-thioxo-5-(2,3,6-trichlorobenzylidene)thiazolidin-3-yl)acetamide] | N.I. | 108 ± 3 | N.I. | 98 ± 3 | 0.5 | ≤ 0.25 | ≤ 0.25 | ≤ 0.25 | 8 | 8 | 4 | 2 | ≤ 0.25 | ≤ 0.25 | ≤ 0.25 | 32 | 8 | 4 | 4 | 0.5 | Meropenem MIC in the presence of inhibitor ([3]; inhibitor 25 mg/L): ≤ 0.25 mg/L; Meropenem MIC in the presence of inhibitor ([3]; inhibitor 50 mg/L): ≤ 0.25 mg/L; remaining activity at 100 µM (PBP5 (dacA) from E. coli): 105 ± 5.7%; Inhibition verdict (PBP6 (dacC) from E. coli): N.I.; remaining activity at 100 µM (PBP6 (dacC) from E. coli): 97.7 ± 3.8%

Source: patent US10351525B2, “Beta lactamase inhibitors” (Oxford University Innovation Limited, priority 2014, dated 2019)
